Measured values reported in US7879792B2, “Synthetic peptide inhibitors of thrombin and thrombin activation of protease activated receptors 1 and 4” (The Regents of the University of Michigan, priority 2005, dated 2011).
“Also recorded” adds a separate entry of the source. Where a SMILES comes first, the peptide text is derived from it.

Legend:
human α-thrombin = human α-thrombin (Homo sapiens, UniProt P00734); assay: inhibition of α-thrombin hydrolysis of chromogenic substrate; format: biochemical; settings: Ki (μM) + SD, αIIa (2 nM), alpha-thrombin 2 nM, Sar-Pro-Arg-paranitroanilide
[1] = tested on: normal human lung fibroblasts (NHLF); assay: α-thrombin-induced calcium mobilization in normal human lung fibroblasts; format: cell-based; settings: 2 nM alpha thrombin
Experimental: The second assay developed to assess peptides from the combinatorial libraries uses inhibition of α-thrombin-induced calcium mobilization in fibroblasts. Normal human lung fibroblasts (NHLF) were purchased from Clonetics, San Diego, Calif., an affiliate of Bio-Wittaker, Walkersville, Md. The cytoplasmic free Ca^2+ concentration ([Ca^2+]i) was measured using the fluorescent Ca^2+ indicator fura-2 (Molecular Probes, Inc., Eugene, Oreg.). Suspension of fibroblasts in Hepes-Tyrode's buffer were loaded with fura-2 by incubation at 37° C. with 2 μM fura-2/acetoxymethyl ester for 45 minutes according to the method of Rasmussen et al., J. Biol. Chem. 268, 14322 (1993). The labeled fibroblasts were separated from excess probe by washing by centrifugation at 1000 rpm (180 xg). Aliquots of the labeled fibroblasts were transferred into a quartz cuvette with a magnetic stirrer, which was then placed in a thermostatically controlled chamber at 37° C. in a fluorescence spectrophotometer (Perkin-Elmer LS50B spectrofluorometer, Chicago, Ill.). Reagents, test peptide, and α-thrombin (0.25-2 nM), were sequentially added directly to the cuvette. The excitation wavelengths varied between 340 and 380 nm. Fluorescence was measured by recording emitted light at 510 nm as reported by Fisher et al., Mol Pharm. 35, 195 (1989). The minimum emission was determined on a solubilized fibroblast sample in the presence of 10 mM EDTA; maximum emission was determined on the same sample with 10 mM Ca^2+ added. The intrafibroblast free Ca^2+ concentration was calculated by the method of Grykiewicz et al., J. Biol. Chem. 260, 3440 (1985). The ratio of the fluorescence readings was calculated as R=340/380 nm and processed according to the equation [Ca^2+]i=KD((R−Rmin)/Rmax−R))(Sf2/Sb2) to determine the intrafibroblast free Ca^2+ concentration. The KD for fura-2 was assumed to be 224 nM. Rmax and Rmin are the maximum and minimum fluorescence ratios measured at the end of the experiment, respectively; Sf2 and Sb2 are the fluorescence values at 380 nm in the absence and presence of saturating [Ca^2+], respectively. The reaction was monitored for 3-5 minutes.

γ-thrombin = assay: inhibition of γ-thrombin hydrolysis of chromogenic substrate; format: biochemical, human; settings: read-out: Ki (μM) + SD, γIIa (2 nM); gamma-thrombin 2 nM, Sar-Pro-Arg-paranitroanilide
[2] = tested on: γ-thrombin-induced platelet aggregation; assay: γ-thrombin-induced platelet aggregation in human platelet-rich plasma; format: cell-based
Experimental: Fresh whole blood was collected and mixed with 0.013 M sodium citrate and platelet-rich plasma was prepared according to the method of Meloni et al., J. Biol. Chem. 266, 6786 (1991). Platelet-rich plasma with a normalized platelet count between 2-2.5×10^8 platelets/ml was added to a cuvette of an aggregometer (Chronlog Corp., Havertown, Pa.), standardized using the protocol of Meloni et al., supra. Peptides to be examined were added to the cuvette and the mixture stabilized for a few moments. Once the baseline was stabilized, γ-thrombin (10-70 nM) (Haematologic Technologies, Essex Junction, Vt.) was added to determine the minimal concentration of the agonist necessary to achieve full platelet aggregation. All investigations with peptides were performed using threshold concentrations of γ-thrombin. Aggregation was allowed to proceed for 5 minutes before stopping.
Table III is a tabulation of the library of peptides prepared and their influence on γ-thrombin-induced platelet aggregation in platelet-rich plasma. […] The numbers in the column represent the minimal concentration (mM) of the peptide that blocked 100% γ-thrombin-induced platelet aggregation of platelets in human platelet-rich plasma.
Human platelet samples were stimulated with 40 nM human gamma thrombin in each experiment.

C57BL6 mice = assay: Rose Bengal model for arterial thrombosis, time to carotid artery occlusion; format: in vivo, mouse; settings: 0.4 to 1.61 mg/kg IP
From the text: C57BL6 mice 6 to 16 weeks of age were anesthetized by intraperitoneal injection with sodium pentobarbital and placed in the supine position on a dissecting microscope (Nikon SMZ-2T, Mager Scientific, Inc., Dexter, Mich.). A midline surgical incision was made to expose the right common carotid artery and a Doppler flow probe (Model 0.5 VB, Transonic Systems, Ithaca, N.Y.) is placed under the vessel. The probe was connected to a flowmeter (Transonic Model T106) and was interpreted with a computerized data acquisition program (Windaq, DATAQ Instruments, Arkron, Ohio). Rose Bengal (4,5,6,7-tetrachloro-3′,6-dihydroxy-2,4,5,7-tetraiodospiro(isobenzofuran-1(3H), 9 [9H] xanthan)-3-1 dipotassium salt) (Fisher Scientific, Fair Lawn, N.J.) at 50 mg/kg in 0.9% saline) was then injected into the tail vein in a 0.12 ml volume (Eitzman et al., Blood 95, 577 (2000)). After injection into the tail vein, a green laser light (Melles Griot, Carlsbad, Calif.) at a wavelength of 540 nm was applied 6 cm from the carotid artery. Flow is monitored continuously from the onset of injury. The time to occlusion was determined only after the vessel remained closed with a cessation of blood flow for 20 min. […] These investigations indicate that these compounds are able to prevent thrombosis in the whole animal in vivo.

thrombin = thrombin (Homo sapiens, UniProt P00734); settings: read-out: Ki, retrobinders to the active site of thrombin; cited from earlier work

Compound | Ki (human α-thrombin) [µM] | alpha thrombin-induced calcium mobilization ([1]; 0.00038 mM peptide) | inhibition of thrombin-induced calcium mobilization ([1]; 0.003 mM peptide) [%] | inhibition of thrombin-induced calcium mobilization ([1]; 0.08 mM peptide) [%] | Ki (γ-thrombin) [µM] | Concentration of Peptide [mM] That Gives 100% Inhibition ([2]; 40 nM human gamma thrombin, human platelet-rich plasma) [mM] | concentration that abolished γ-thrombin-induced platelet aggregation ([2]; 40 nM γ-thrombin) [µM] | time to occlusion of the mouse right carotid artery (C57BL6 mice) | Ki (thrombin) [µM]
Cc1ccc(C[C@H](NC(=O)[C@@H](CO)NC(=O)[C@@H]2CCCN2C(=O)[C@@H]2C[C@@H]3CCCC[C@@H]3N2C(=O)[C@H](N)CCCNC(=N)N)C(N)=O)cc1 [rOicPsF(p-Me), D-Arg-Oic-Pro-D-Ser-Phe(p-Me)] (HELM PEPTIDE1{[dR].[O=C([C@@H]1C[C@@H]2CCCC[C@@H]2N1[*:1])[*:2]].P.[dS].[Cc1ccc(C[C@H](N[*:1])C(=O)[*:2])cc1].[am]}$$$$V2.0) | 6.4 to 10.6 | full recovery | 59 | 97 | 42.2 ± 6 | 0.016 | 16 | significant prolongation; also recorded: prolonged | –
β-Ala-Lys-2Lys-4(Arg-Pro-Pro-Gly-Phe) [MAP4-RPPGF] | – | – | – | – | – | – | – | – | 1750
